In patent US9526721B2, “Tetrahydroprotoberbine compounds and uses thereof in the treatment of neurological, psychiatric and neurodegenerative diseases” (priority 2012, dated 2016):
Entries after “also recorded” stand apart in the source; their conditions may differ.

Experiments:
D2L = molecular target: T1, D2L (Homo sapiens, UniProt P14416); experiment: Receptor binding, dopamine D2L; conditions: for Ki: receptor expressed in CHO cells, read-out: Ki, D2L
T1 construct: host or cells: CHO cells
Procedure: (§1) All receptors tested were heterologously expressed CHO cells and IC50 values were determined by a non-linear, least squares regression analysis using MathIQ (ID Business Solution Ltd, UK). Ki was calculated using the equation of Cheng and Prusoff (1973, Biochem. Pharmacol 22:23099-3108) derived from the observed IC50 of the tested compound, the concentration of radioligand employed in the assay, and the historical values for the Kd of the ligand (obtained experimentally at MDS Pharma Services).
as §1, with “receptors” for “receptors tested”, “UK). K1” for “UK). Ki”, “calculated (Y.” for “calculated using the equation of”, “Cheng &” for “Cheng and”, “Prusoff 1973)” for “Prusoff (1973, Biochem. Pharmacol 22:23099-3108) derived”

Dopamine D1 receptors = molecular target: T2, Dopamine D1 receptors (Homo sapiens, UniProt P21728); experiment: Dopamine D1 receptor Adenylyl Cyclase Cellular Assay (cAMP, HTRF); format: cell-based; conditions: for IC50: D1 antagonism, cAMP, CHO cells, read-out: IC50 of antagonistic response; for % Response Agonist: increase in cAMP relative to dopamine response; for % Response Agonist / % Response Antagonist: D1 in CHO cells; for % Response Antagonist: inhibition of dopamine-induced cAMP increase
T2 construct: host or cells: CHO cells
Description: Methods employed in this Example were adapted from Liu et al (1992, Mol Endocrinol 92:1815-1824) and Zhou et al (1990, Nature 347:76-79) to maximize reliability and reproducibility. Reference standards were run as an integral part of each assay to ensure the validity of the results obtained. […] (+)-Butaclamol was used as a positive control for the assay assessing antagonism. Homogeneous fluorescence methodology HTRF homogeneous fluorescence quantitation methodology was used to measure the levels of cAMP. The criterion for significant agonist activity is ≧50% increase in cAMP relative to dopamine response. The criteria for significant antagonist activity ≧50% inhibition of dopamine-induced cAMP increase.

rats [1] = experiment: Microdialysis of prefrontal cortex and nucleus accumbens; conditions: for 5-HIAA in NAc / DOPAC in NAc / HVA in NAc / dopamine level in NAc / 5-HIAA in PFC / DOPAC in PFC / HVA in PFC / dopamine level in PFC: microdialysis; for 5-HIAA in NAc / DOPAC in NAc / HVA in NAc / dopamine level in NAc: nucleus accumbens; for 5-HIAA in PFC / DOPAC in PFC / HVA in PFC / dopamine level in PFC: prefrontal cortex;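 for all read-outs here: dialysate collected every 10 min from freely moving rats, analysed by HPLC with electrochemical detection, after four stable baseline samples (under 10% variation) preceding drug dosing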
Procedure: Rats received subcutaneous injections of an analgesic (ketoprofen 0.05 mL or buprenorphine, 0.1 mL) and sterile saline (0.9% NaCl, ˜3 mL). Once shaved and cleaned, the heads were secured in the stereotaxic frame in flat skull position for bilateral implantation of stainless steel microdialysis guide cannulae (19 gauge×15 mm) in the nucleus accumbens (NAc) (from bregma +1.7 mm anterior and ±1.1 mm medial; from dura −1.0 mm ventral) or medial prefrontal cortex (mPFC) (+3.0 mm anterior, ±0.6 mm medial; −1.0 mm ventral). […] Rats were allowed to rest with heat support until they regained consciousness, and then given a one-week recovery period.
Microdialysis probes were assembled 1-2 days prior to microdialysis experiments. Probes were concentric in design, constructed from Filtral 12 AN69HF semi-permeable hollow fibres (2 mm length, 340 μm OD×4 mm, 65 kDalton molecular weight cut-off; Hospal, Neurnberg, Germany) and silica inlet-outlet lines (75/150 um ID/OD).
The day prior to microdialysis experiments, probes were connected to an Instech dual-channel liquid swivel (Plymouth Meeting, Pa.) and flushed with artificial cerebrospinal fluid (aCSF). […] Following DA recovery tests, probes were implanted via the guide cannulae (dialysis membrane spanned −4.8 to −6.8 mm ventrally for NAc; −1.6 to −3.6 mm for mPFC). Rats remained in the testing chamber overnight (14-16 hr) with aCSF perfusing continuously through the probes at 1 μL/min In the morning, microdialysis samples were collected at 10 min intervals and assayed for DA, DOPAC, homovanillic acid (HVA) and 5-HIAA content. Once baseline levels were determined to be stable for four consecutive samples (less than 10% fluctuation), the drug treatment phase of each experiment was initiated.
Microdialysis samples were analyzed immediately after collection using high pressure liquid chromatography (HPLC) with electrochemical detection. […] The mobile phase [70 mM sodium acetate buffer, 40 mg/L EDTA and 50 mg/L of sodium dodecyl sulfate (adjustable), pH 4.0, 10% methanol] flowed through the system at 0.17 mL/min EZChrome Elite software (Scientific Software, Pleasanton, Calif.) was used to acquire and analyze chromatographic data.
After the experiments, rats were deeply anesthetized, brains were removed and stored in 20% w/v sucrose and 4% v/v paraformaldehyde. Brains were sliced into 50 um coronal sections, stained with cresyl violet and examined for probe placement.
Microdialysis probes (2 mm active membrane) were implanted in the NAc and mPFC ˜16 hrs prior to start of the experiment and continuously perfused aCSF.

D5 = molecular target: T3, D5 (Homo sapiens, UniProt P21918); experiment: Receptor binding, dopamine D5; conditions: receptor expressed in CHO cells
T3 construct: host or cells: CHO cells
Procedure: All receptors tested were heterologously expressed CHO cells and IC50 values were determined by a non-linear, least squares regression analysis using MathIQ (ID Business Solution Ltd, UK).
All receptors were heterologously expressed CHO cells and IC50 values were determined by a non-linear, least squares regression analysis using MathIQ (ID Business Solution Ltd, UK).

5HT3 = molecular target: T4, 5HT3 (Homo sapiens, UniProt P46098); experiment: Receptor binding, 5HT3; conditions: CHO cells
T4 construct: host or cells: CHO cells
T4 sequence (P46098 24-478): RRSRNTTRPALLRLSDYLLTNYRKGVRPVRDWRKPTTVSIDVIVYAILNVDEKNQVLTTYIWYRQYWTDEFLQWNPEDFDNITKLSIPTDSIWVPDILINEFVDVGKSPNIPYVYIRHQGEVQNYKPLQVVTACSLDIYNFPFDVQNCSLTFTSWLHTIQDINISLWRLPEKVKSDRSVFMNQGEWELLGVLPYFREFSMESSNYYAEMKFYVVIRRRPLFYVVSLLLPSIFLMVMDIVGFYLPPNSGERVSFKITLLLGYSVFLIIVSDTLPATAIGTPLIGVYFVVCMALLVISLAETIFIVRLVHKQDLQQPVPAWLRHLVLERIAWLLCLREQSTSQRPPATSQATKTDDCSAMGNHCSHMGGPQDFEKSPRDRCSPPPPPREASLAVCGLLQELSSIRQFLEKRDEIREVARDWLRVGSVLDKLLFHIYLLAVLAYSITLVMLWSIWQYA
Procedure: as §1

D3 = molecular target: T5, D3 (Homo sapiens, UniProt P35462); experiment: Receptor binding, dopamine D3; conditions: receptor expressed in CHO cells
T5 construct: host or cells: CHO cells
Procedure: as §1
as §1, with “receptors” for “receptors tested”, “UK). K1” for “UK). Ki”, “calculated (Y.” for “calculated using the equation of”, “Cheng &” for “Cheng and”, “Prusoff 1973)” for “Prusoff (1973, Biochem. Pharmacol 22:23099-3108) derived”

5HT2C = molecular target: T6, 5HT2C (Homo sapiens, UniProt P28335); experiment: Receptor binding, 5HT2C; conditions: receptor expressed in CHO cells
T6 construct: host or cells: CHO cells
T6 sequence (P28335 33-458): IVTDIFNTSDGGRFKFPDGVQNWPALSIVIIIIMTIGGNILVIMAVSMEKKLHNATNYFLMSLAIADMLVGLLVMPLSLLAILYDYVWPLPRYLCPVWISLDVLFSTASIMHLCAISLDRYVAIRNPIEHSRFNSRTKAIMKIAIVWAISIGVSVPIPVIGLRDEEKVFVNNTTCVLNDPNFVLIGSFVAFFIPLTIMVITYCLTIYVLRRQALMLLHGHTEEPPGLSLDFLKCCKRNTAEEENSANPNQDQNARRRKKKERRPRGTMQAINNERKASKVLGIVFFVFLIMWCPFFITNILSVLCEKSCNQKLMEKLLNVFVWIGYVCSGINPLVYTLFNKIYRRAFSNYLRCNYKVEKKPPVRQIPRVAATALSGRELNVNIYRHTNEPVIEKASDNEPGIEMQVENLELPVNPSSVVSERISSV
Procedure: as §1
as §1, with “receptors” for “receptors tested”, “UK). K1” for “UK). Ki”, “calculated (Y.” for “calculated using the equation of”, “Cheng &” for “Cheng and”, “Prusoff 1973)” for “Prusoff (1973, Biochem. Pharmacol 22:23099-3108) derived”

rats [2] = experiment: Conditioned avoidance responding (CAR); conditions: SC, 100 CS-US pairings
Procedure: Conditioned avoidance responding (CAR) was performed in a two-way avoidance procedure with drug naive rats in four shuttle boxes (Med Associates, Vt., USA) each consisting of two compartments separated by an open door. Each compartment contained a wall-mounted speaker, house light and 5 photocells to detect the location of the animal. All experimental protocols and data acquisition were controlled by custom programs written in MED-PC.
Before training, each animal received two acclimation sessions lasting 30 min with only the house light illuminated. […] Pairings of the conditioned stimulus (CS) (white noise, ˜60 dB) and the unconditioned stimulus (US) (footshock, 0.75 mA) were presented at random intervals with a mean of 60 sec. The CS was presented for 10 sec. During this time, if the animal moved to the opposite side of the box, the white noise was silenced, no foot shock delivered, and an avoidance response was scored. Upon termination of the 10 sec tone, if the animal had not moved to the opposite side of the box, a foot-shock was administered for 2 sec. […] Failure to avoid or escape constituted a response failure and was scored accordingly. After reaching a criterion of 90% avoidances for a block of 20 trials, usually achieved with ˜100 CS-US pairings, each animal advanced to the drug-testing phase. Animals not meeting the criterion by 120 pairings were excluded from the study.
Pairings were presented just as during training and were scored in the same fashion. The test trial consisted of 100 CS-US pairings.

[3] = system: midbrain dopamine (DA) neurons; experiment: Firing of midbrain dopamine neurons in slices (cell-attached recording); format: cell-based, Sprague Dawley rats; conditions: co-application with Quinpirole (500 nM)
Procedure: Horizontal midbrain slices (220 μm) were prepared from male Sprague Dawley rats (3-4 weeks old). Cell-attached voltage-clamp recordings were used to examine tonic firing rate of DA neurons at 31-32° C. using patch pipette and bathing solutions consisting of physiological saline. Putative DA neurons were identified by spontaneous pacemaker firing (1-3 Hz) with broad APs (≧2.0 ms). Identified cells not responsive to Quinpirole (500 nM), a D2 DA receptor agonist, were excluded from further recording. Cells were also filled with biocytin or Alexa for posthoc-identification using TH immunostaining.

T1 sequence (P14416 whole entry): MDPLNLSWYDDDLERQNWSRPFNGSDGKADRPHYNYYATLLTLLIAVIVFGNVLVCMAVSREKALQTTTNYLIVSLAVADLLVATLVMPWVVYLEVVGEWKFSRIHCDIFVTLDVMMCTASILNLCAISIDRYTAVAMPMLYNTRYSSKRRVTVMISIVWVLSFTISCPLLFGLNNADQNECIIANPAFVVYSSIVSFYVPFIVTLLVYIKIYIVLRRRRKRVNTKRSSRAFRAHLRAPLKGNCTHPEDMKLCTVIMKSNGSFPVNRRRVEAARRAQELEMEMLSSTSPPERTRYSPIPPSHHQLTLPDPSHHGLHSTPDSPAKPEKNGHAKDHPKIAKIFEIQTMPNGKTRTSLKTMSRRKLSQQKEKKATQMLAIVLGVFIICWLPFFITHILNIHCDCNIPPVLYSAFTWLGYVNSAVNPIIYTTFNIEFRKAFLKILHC
T2 sequence (P21728 whole entry): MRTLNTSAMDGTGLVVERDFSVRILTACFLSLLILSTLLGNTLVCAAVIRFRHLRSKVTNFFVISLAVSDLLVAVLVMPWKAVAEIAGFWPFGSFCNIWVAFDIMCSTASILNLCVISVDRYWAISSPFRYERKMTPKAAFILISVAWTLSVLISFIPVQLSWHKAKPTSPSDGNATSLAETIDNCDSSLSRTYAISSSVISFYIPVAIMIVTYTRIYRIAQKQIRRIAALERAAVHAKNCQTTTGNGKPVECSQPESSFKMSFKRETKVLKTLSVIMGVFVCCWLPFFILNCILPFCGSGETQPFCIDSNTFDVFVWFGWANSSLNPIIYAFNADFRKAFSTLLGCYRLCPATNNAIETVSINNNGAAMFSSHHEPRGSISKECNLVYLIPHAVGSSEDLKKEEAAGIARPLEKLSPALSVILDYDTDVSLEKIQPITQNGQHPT
T5 sequence (P35462 whole entry): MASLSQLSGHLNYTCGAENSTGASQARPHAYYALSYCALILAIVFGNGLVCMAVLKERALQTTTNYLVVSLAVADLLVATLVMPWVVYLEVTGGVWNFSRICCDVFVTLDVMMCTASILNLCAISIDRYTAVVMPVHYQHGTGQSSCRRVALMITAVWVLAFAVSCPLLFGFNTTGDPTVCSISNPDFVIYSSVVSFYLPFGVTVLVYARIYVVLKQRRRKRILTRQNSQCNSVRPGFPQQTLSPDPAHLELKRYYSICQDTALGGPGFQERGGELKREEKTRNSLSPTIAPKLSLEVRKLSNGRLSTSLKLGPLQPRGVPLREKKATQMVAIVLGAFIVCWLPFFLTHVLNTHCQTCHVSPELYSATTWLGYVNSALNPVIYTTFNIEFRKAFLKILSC
T3 sequence (P21918 whole entry): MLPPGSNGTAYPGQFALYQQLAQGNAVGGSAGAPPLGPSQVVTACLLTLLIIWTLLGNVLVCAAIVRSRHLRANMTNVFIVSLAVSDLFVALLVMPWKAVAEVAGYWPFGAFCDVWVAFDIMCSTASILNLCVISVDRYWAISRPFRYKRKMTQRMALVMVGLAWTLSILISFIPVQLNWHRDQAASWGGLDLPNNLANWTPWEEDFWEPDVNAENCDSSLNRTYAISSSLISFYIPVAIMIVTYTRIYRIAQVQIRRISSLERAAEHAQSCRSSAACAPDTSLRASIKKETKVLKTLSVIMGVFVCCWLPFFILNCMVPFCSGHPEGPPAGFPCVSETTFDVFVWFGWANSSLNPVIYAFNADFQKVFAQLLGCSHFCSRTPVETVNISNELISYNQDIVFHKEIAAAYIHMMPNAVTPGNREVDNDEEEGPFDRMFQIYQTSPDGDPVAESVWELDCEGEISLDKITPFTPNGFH

SMILES | binding affinity to the D2 receptor (D2L) | Ki (D2L) | IC50 (Dopamine D1 receptors) | % Response Agonist (Dopamine D1 receptors) | % Response Antagonist (Dopamine D1 receptors) | 5-HIAA in NAc (rats [1]) | DOPAC in NAc (rats [1]) | HVA in NAc (rats [1]) | dopamine level in NAc (rats [1]) | 5-HIAA in PFC (rats [1]) | DOPAC in PFC (rats [1]) | HVA in PFC (rats [1]) | dopamine level in PFC (rats [1]) | Ki (D5) | inhibition at 10 µM (5HT3) | Ki (D3) | Ki (5HT2C) | suppression of conditioned avoidance responding (avoidances) (rats [2]) | DA efflux in NAc and mPFC compared to control (rats [1]; 1 mg/kg, Example 15) | antagonism of D2 autoreceptor-mediated decrease in tonic firing [3]
COc1cc2c(cc1O)CN1CCc3cc(OC)c(O)cc3[C@H]1C2 [d-govadine] | weak affinity | 1340 nM | 2380 nM | 2% | 82% | not the NAc | no increase observed | no increase observed | not in the NAc | increased | increased | increased | selectively increased | 13.4 nM | -8% | 606 nM | 46.5 µM | – | – | –
COc1cc2c(cc1O)CN1CCc3cc(OC)c(O)cc3[C@@H]1C2 [l-govadine] | strong affinity | 165 nM | 16.6 nM | 2% | 87% | No increase | increase | increase | increased | No increase | increase | increase | increased | – | 5% | 548 nM | 45.2 µM | Suppression of conditioned avoidance responding was observed; also recorded: suppresses CAR | enhanced DA efflux | antagonized
